One assay addresses T1, ACC2 (Homo sapiens, UniProt O00763).
T1 construct: gene ACACB
The assay is described as follows: ACC2 inhibition IC50 (assay details not given; Supplementary Figure S1A). It is filed as biochemical.

A further assay deals with T2, ACC1 (Homo sapiens, UniProt Q13085).
T2 construct: gene ACACA
The assay is described as follows: ACC1 inhibition IC50 (assay details not given; Supplementary Figure S1A). It is filed as biochemical.

T1 sequence (O00763 whole entry): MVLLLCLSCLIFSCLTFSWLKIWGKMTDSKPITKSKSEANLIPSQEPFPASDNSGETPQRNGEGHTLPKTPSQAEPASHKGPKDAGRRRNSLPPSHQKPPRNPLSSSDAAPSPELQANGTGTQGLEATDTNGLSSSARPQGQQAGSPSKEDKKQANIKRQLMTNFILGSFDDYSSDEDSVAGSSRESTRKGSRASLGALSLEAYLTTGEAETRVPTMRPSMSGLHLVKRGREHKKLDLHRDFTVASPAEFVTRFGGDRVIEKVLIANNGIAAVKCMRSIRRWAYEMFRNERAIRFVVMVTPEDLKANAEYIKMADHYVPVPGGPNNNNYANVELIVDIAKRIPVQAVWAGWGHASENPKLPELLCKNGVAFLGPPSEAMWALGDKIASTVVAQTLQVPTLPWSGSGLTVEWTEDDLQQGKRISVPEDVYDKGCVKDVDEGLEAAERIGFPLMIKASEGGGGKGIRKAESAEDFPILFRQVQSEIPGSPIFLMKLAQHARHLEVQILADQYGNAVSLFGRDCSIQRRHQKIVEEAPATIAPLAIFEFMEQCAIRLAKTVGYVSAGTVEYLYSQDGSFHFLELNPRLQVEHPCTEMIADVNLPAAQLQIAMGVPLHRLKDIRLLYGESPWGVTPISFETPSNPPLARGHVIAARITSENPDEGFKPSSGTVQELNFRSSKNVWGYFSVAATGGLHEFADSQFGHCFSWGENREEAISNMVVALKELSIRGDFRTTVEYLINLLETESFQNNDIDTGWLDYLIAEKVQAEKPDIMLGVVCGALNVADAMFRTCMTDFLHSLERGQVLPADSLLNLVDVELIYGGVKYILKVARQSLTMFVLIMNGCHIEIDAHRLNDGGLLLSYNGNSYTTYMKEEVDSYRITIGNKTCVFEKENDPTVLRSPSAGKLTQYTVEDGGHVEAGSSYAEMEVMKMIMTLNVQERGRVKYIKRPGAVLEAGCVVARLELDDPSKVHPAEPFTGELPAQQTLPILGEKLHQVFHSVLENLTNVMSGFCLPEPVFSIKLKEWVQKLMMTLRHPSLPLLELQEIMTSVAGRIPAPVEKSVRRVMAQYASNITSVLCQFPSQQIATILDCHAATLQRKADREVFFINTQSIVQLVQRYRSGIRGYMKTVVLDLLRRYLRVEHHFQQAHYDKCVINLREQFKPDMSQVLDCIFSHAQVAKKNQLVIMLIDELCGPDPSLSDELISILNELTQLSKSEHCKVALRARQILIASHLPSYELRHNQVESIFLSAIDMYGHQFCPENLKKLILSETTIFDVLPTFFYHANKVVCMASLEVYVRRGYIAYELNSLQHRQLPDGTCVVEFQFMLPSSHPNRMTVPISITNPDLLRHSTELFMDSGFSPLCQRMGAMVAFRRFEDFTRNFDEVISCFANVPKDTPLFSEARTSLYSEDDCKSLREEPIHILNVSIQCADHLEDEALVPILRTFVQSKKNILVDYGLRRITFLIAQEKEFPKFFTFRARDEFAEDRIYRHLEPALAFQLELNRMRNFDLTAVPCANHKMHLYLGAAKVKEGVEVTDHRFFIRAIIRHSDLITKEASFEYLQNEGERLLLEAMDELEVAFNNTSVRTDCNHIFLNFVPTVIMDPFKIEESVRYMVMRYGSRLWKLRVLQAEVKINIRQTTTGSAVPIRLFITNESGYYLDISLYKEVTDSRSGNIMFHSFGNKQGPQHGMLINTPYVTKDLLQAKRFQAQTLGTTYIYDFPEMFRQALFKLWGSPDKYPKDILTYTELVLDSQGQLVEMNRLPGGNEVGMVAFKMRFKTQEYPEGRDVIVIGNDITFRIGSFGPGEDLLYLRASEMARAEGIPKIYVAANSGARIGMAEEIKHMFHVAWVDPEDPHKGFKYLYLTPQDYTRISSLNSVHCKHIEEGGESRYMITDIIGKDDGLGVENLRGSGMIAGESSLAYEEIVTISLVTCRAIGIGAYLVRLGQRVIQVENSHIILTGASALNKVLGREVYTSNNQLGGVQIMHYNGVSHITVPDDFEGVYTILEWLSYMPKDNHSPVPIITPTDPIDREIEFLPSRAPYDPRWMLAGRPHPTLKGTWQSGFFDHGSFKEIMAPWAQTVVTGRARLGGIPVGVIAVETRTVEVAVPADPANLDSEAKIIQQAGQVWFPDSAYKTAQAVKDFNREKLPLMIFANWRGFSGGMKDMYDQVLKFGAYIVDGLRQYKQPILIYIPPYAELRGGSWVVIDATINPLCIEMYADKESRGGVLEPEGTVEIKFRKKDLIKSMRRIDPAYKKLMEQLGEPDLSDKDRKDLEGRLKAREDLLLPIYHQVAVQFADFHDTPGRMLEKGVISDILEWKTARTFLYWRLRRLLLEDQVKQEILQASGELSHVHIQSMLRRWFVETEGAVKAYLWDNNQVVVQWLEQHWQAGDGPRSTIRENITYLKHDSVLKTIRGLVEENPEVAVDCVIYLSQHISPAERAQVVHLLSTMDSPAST

The IC50 is the concentration needed to halve the response being measured. Turning to BAY ACC001, the IC50 on ACC2 was 2600 nM; against ACC1, 280 nM.
For the substance BAY ACC002, the IC50 against ACC2 was 1400 nM; against ACC1 it was 100 nM.

The record behind these values is paper PMC5564715, “Acetyl-CoA carboxylase inhibitors attenuate WNT and Hedgehog signaling and suppress pancreatic tumor growth” (Oncotarget, 2016).
